# Results taken from a melting point compilation (Tetko et al.; mined from patent text by program, amines drawn as free bases though some values may be those of a salt).
row,melting point,Structure (SMILES)
1,185 to 187 °C,Cc1ccccc1-c1cccc(/C=C/C(=O)Nc2ccc(CN3CCCCC3)cc2)c1
2,186 to 187 °C,Cc1cccc(COc2nn3c(-c4ccccc4)nnc3c3ccccc23)n1
3,236 to 238 °C,COc1ccccc1C(=O)NCc1cccc2c1CN(C1CCC(=O)NC1=O)C2=O (stereo unspecified)
4,78 to 80 °C,CC(C)NCCOc1ccc(O)cc1
5,230 to 233 °C,COc1ccc(/C=C/c2ncccc2C(=O)O)cc1
6,170 to 173 °C,O=C(O)c1coc2ccc(OCc3ccccc3)cc2c1=O
7,176 to 179 °C,CCCOCCOc1ccc(-c2ccc3c(c2)C=C(C(=O)O)CCS3(=O)=O)cc1
8,307 to 309 °C,O=c1[nH]c(-c2ccc(CCN3CCN(c4cccc5ccccc45)CC3)cc2)cs1
9,160 °C,CC(C)c1cccc(S(=O)(=O)n2c(CCCC(=O)O)cc3cc(C(F)(F)F)ccc32)c1
10,212 °C,Cc1nc2sccn2c(=O)c1CCN1CCC(NC(=O)c2cc(Cl)c(N)c3c2OCCC3)CC1
11,162 to 164 °C,COC(=O)CC1=C(C)/C(=C/c2ccc(S(C)(=O)=O)cc2)c2ccc(F)cc21
12,157 to 159 °C,Cc1c(N2CCc3c(-c4ccccc4)cccc32)nc2ccc(F)cc2c1C(=O)O
13,62 to 63 °C,CCCNc1ncnc2c1ncn2CCCN1CCC(COc2ccccc2)CC1
14,174 °C,O=C(c1ccccc1)c1ccc2cc[nH]c2n1
15,107 to 109 °C,Cc1nc2c3c(ccn2c1C)C(OCCO)C(O)C(c1ccccc1)N3 (stereo unspecified)
16,223 to 225 °C,Cc1cccc2c1ccc1c(O)cc(=O)oc12
17,226 °C,Cn1cc(-c2cc(-c3ccncc3)ccn2)n(-c2ccc(C(C)(C)C#N)cc2)c1=O
18,285 to 287 °C,COc1ccc(-c2[nH]c3cn[nH]c(=O)c3c2Cl)cc1OC1CCC1
19,70 °C,CCCC1(O)CSC(=S)N1c1cccc(C)n1 (stereo unspecified)

row,melting point,Structure (SMILES)
1,156 °C,Cn1cnc(COc2nn3c(-c4ccc(F)cc4F)nnc3cc2C2(C)CCCCC2)n1
2,153 to 156 °C,CCc1nc2c(cnn2CC)c(NC2CCOCC2)c1CNC(=O)c1cc(C)cc(C(=O)NCc2ccc(Cl)c(-c3cccc(C=O)c3)c2)c1
3,139 to 140 °C,O=C(O)c1ccc(OC(F)=C(F)F)cc1
4,89 to 95 °C,COc1cc(OC)c(NC(=O)[C@H](Cc2ccc(OCc3ccccc3)cc2)NC(=O)OC(C)(C)C)c(OC)c1
5,167 to 168 °C,O=C(O)CCn1ccn(C2CCc3ccccc3C2)c1=S (stereo unspecified)
6,136 to 138 °C,CC(=O)NCC1CN(c2ccc(N3CCC(C(C#N)CO)CC3)c(F)c2)C(=O)O1 (stereo unspecified)
7,124 to 126 °C,O=C1N(Cc2ccccc2C(F)(F)F)c2ccccc2C12COc1cc3[nH]ncc3cc12 (stereo unspecified)
8,156 °C,CCOC(=O)CSc1nc(=O)[nH]cc1F
9,122 °C,COCCOc1ccc(CCCOC(=O)NS(=O)(=O)NC2CCC(C)CC2)c(Oc2ncc(C(F)(F)F)cc2Cl)c1 (stereo unspecified)
10,295 to 299 °C,N#Cc1c(N)sc2ccccc2c1=O
11,88 to 100 °C,CCOc1ccc2nc(COc3ccc(CC4SC(=O)N(C(c5ccccc5)(c5ccccc5)c5ccccc5)C4=O)cc3)n(C)c2n1 (stereo unspecified)
12,67 to 69 °C,CC(=O)C12CC(C(C)=O)(C1)C2
13,185 to 186 °C,CSc1ncc2c(=O)[nH]c(-c3ccccc3OCC(C)C)nc2n1
14,102 to 103 °C,CN1CCN(C2CC(=O)c3ccc(F)cc32)CC1 (stereo unspecified)
15,164 to 165 °C,CCCCCCOc1ccc(-n2cc(C(=O)O)cn2)cc1C#N
16,200 to 203 °C,CC(C)NC(=O)c1cccc(I)c1C(=O)Nc1ccc(OCC(F)(F)F)nc1
17,64 to 65 °C,O=C(NO)[C@H]1[C@H](O)CCN1C(=O)c1ccc(OC(F)(F)F)cc1
18,> 230 °C,COc1ccc(COc2cnc3c(S)cccn3c2=O)cc1

# Continued, compound first:
row,Structure (SMILES),melting point
1,O=C(CNc1ccc2[nH]c(=O)[nH]c2c1)N1CCC(Cc2ccccc2)CC1,237 to 238 °C
2,COC(=O)c1cncn1C1c2ccsc2CC1(C)C (stereo unspecified),62 to 63 °C
3,CO[C@H]([C@@H](C)C(=S)NCCc1ccccc1)[C@@H]1CCCN1C(=O)OC(C)(C)C,107 to 109 °C
4,N#CCc1ccc(NC(=O)OCc2cccnc2)cc1,157 to 162 °C
5,C#CCOc1cc(C(N)=O)cc(Cl)c1OCC#C,122 to 125 °C
6,COc1ccc(N2CCCCN(CCCCNC(=O)c3ccc(NC(=O)c4ccc(Cl)cc4)cc3)CC2)c(OC)c1,229 °C
7,C=CCC(CO)C(O)c1cccnc1 (stereo unspecified),112 to 113 °C
8,Cc1sc(N)nc1-c1cccc2ccccc12,194 to 195 °C
9,CC(=O)Nc1ccc(SSc2ccc(NC(C)=O)cc2C(=O)NC(CC(C)C)C(=O)O)c(C(=O)NC(CC(C)C)C(=O)O)c1 (stereo unspecified),241 to 242 °C
10,COC(=O)c1cccc2c(C=O)c[nH]c12,153 to 154 °C
11,CCOC(=O)c1ccc(N=C(Nc2ccc(C(=O)OCC)cc2)c2ccc([N+](=O)[O-])cc2)cc1,202 to 205 °C
12,CCOC(=O)Cn1c(=O)oc2c(O)cccc21,150 to 152 °C
13,COc1ccccc1CC(=O)N1C[C@H]2C(c3ccccc3OC)=CCC(c3ccccc3)(c3ccccc3)[C@H]2C1,142 °C
14,O=Cc1cccn1Cc1ccccc1[N+](=O)[O-],128 to 132 °C
15,O=C(O)C1=CCCN(Cc2ccc(Cl)c(Cl)c2)C1,240 to 245 °C
16,CCOC(=O)Cc1ccc(CCN2CCN(C(=O)C=Cc3cc(C(C)(C)C)c(O)c(C(C)(C)C)c3)CC2)cc1,111 to 113 °C
17,COc1ccc2c(Cc3c(Cl)cncc3Cl)nnc(Cl)c2c1,156 to 166 °C
18,Cc1cc(C)nc(NC(=S)NS(=O)(=O)c2ccccc2-c2ccccc2)n1,203 to 204 °C
19,CCCNC(=O)c1ccc(C)c(-c2nc(NCCN(C)C(=O)OC(C)(C)C)nc3c2ccc(=O)n3-c2c(F)cccc2F)c1,115 to 118 °C
20,CN1CCN(Cc2cc(C(=O)c3cccs3)cc(C(C)(C)C)c2O)CC1,118 to 119 °C
21,CN1C(C(=O)OCCO)=C(O)c2ccccc2S1(=O)=O,122 to 123 °C
22,CC(C)Oc1cc(-n2nc(C(F)F)n(C)c2=O)c(Cl)cc1Cl,95 to 97 °C

row,Structure (SMILES),melting point
1,CCCCN(CCCC)CCCOc1ccc(S(=O)(=O)c2ccccc2CC)cc1,80 °C
2,CCOC(=O)C(C#N)=Cc1cc(OC)c(C(=O)OC)c(OC)c1,142 to 144 °C
3,Cc1ccc(S(=O)(=O)OCC2Cc3cccc(-c4cccc(C(F)(F)F)c4)c3O2)cc1 (stereo unspecified),90 to 93 °C
4,CC(=O)NS(=O)(=O)c1ccc(-n2cc(C)cc2-c2ccc(C)c(C)c2)cc1,192 to 193 °C
5,CC(C)(C)OC(=O)N1CCCCc2ccc(Cl)nc21,166 to 168 °C
6,O=[N+]([O-])c1cc2c(Nc3ccc(F)c(Cl)c3)ncnc2cc1OC1CCC1,235 °C
7,CN1C[C@H](c2cnccn2)OC1=O,114 °C
8,COc1cc2ccccc2cc1OC,112 to 113 °C
9,COCC1CCCN1S(=O)(=O)c1cc2c(cc1Cl)N1CCCN=C1C2=O (stereo unspecified),127 to 130 °C
10,O=c1ccc(-c2ccc(OCC(O)CN3CCCCC3)cc2)n[nH]1 (stereo unspecified),185 °C
11,CCC1(C)OC(c2ccc(S(N)(=O)=O)cc2)=C(c2ccc(OC)c(F)c2)C1=O (stereo unspecified),113 to 114 °C
12,CC(C#N)c1ccc(CCc2ccccc2C(=O)O)cc1 (stereo unspecified),73 °C
13,CC(O)(CC(=O)O)c1ccc(Oc2ccccc2)cc1 (stereo unspecified),137 to 138 °C
14,CC(C)(C)OC(=O)N1C[C@@H]2C[C@H]1C(=O)N2C(C)(C)C,167 to 168 °C
15,Cc1c(C(=O)O)nc2c(cc(C)c3nc(C(=O)O)c(C)c(O)c32)c1O,205 to 206 °C
16,O=C(NC1N=C(c2ccc(F)cc2)c2ccccc2NC1=O)OCc1ccccc1 (stereo unspecified),> 260 °C
17,CN1Cc2cncn2-c2ccccc2C1=O,212 to 213 °C
18,Oc1ccc(-c2cccnc2)cc1,195 °C
19,CC(C)OC(=O)c1cc(F)c(Cl)cc1Cl,35 °C
20,CN(C)C1(c2ccc(F)cc2)CCC(=CC(=O)N2CCC(c3c[nH]c4ccccc34)C2)CC1 (stereo unspecified),109 to 112 °C
21,CC1(C)Nc2nc(Cl)ccc2NC1=O,229 °C
22,CC(C)(C)c1cc(C(=O)c2ccc(O)cc2O)cc(C(C)(C)C)c1O,192 to 193 °C

row,Structure (SMILES),melting point
1,CCCCCC(C)NC1=NS(=O)(=O)c2sc(Cl)cc2N1 (stereo unspecified),158 to 162 °C
2,CS(=O)(=O)Nc1ccc2ncn3c(=O)c(C(=O)O)cnc3c2c1,319 to 322 °C
3,Cc1[nH]c(C(=O)NCCC(=O)O)c(C)c1-c1nc2ccc(C(=O)c3ccccc3)cc2[nH]1,256 to 258 °C
4,COc1ccccc1C1=Nc2ccc(N3CCCC3)cc2C(=O)C1,312 to 313 °C
5,ONc1cc(Cl)ccc1Cl,124 °C
6,COc1cccc(-c2ccc3c(c2)C(C)(C(F)(F)F)OC(=O)N3)c1 (stereo unspecified),178 to 179 °C
7,CC(C)C(=Nc1ccc([N+](=O)[O-])c(C(F)(F)F)c1)N(C)c1ccccc1,52.5 to 54 °C
8,COc1ccc(CCC(=O)CCI)cc1,38 to 42 °C
9,CCOC(=O)/C(=C\Nc1ccc(OC)c(OC)c1)c1ccc(OC)cc1,88 to 89 °C
10,O=C(c1cncnc1)c1ccc(Cl)cc1Cl,75 to 78 °C
11,Cn1c(=O)c2cccnc2n(-c2cccc([N+](=O)[O-])c2)c1=O,234 to 235 °C
12,CCN(CC)S(=O)(=O)c1ccc2c(c1)S(=O)(=O)NC(C1CCCCC1)N2 (stereo unspecified),207 to 209 °C
13,CCOC(=O)c1[nH]cc2c1NC1=C(C(=O)CNC1)C2c1ccc(Sc2nc3ccc(OC)cc3[nH]2)o1 (stereo unspecified),248 °C
14,CCCCCCCCCCCP(=O)(c1ccccc1)c1ccccc1,69 °C
15,CCn1c(COCc2ccc(OC)cc2)nc(C(C)C)c1Sc1cc(Cl)cc(Cl)c1,120 to 121 °C
16,CCCOC(=O)C=CC1C(C(=O)O)C1(C)C (stereo unspecified),59 °C
17,CCOC(=O)CCCc1csc(NC(=O)NCc2ccccc2)n1,157 °C
18,COc1cc(C=CC(=O)c2ccc(I)cc2O)cc(OC)c1OCc1ccccc1,124 to 125 °C
19,Cc1cc2c(c(C3=NNC(=O)CC3)c1)OCC(=O)N2,266 to 270 °C
20,O=C(Nc1ccccc1)ONC1=Nc2ccc(Cl)cc2C(c2ccccc2F)=NC1,126 to 128 °C
